Columns and labels:
PC3-M cells = experiment: PCa subcutaneous implantation, tumor growth; type: in vivo; conditions: oral 80 mg KBU2046/kg, weekly intraperitoneal docetaxel 20 mg/kg, KBU2046 added to control or docetaxel treated mice
Procedure: FIG. 1A depicts the effect of chemotherapy on the growth of androgen independent PC3-M PCa cells in vitro. Data are the mean±SEM (N=3 replicates) of cell viability in a 3 day growth assay in the presence of 10 μM KBU2046 or vehicle (control) treated with docetaxel or cabazitaxel. FIG. 1B depicts the effect of chemotherapy on the growth of androgen independent PCa cells in vivo. Mice received subcutaneous implants of PC3-M cells, were monitored until tumors were detectable (250 mm^3), and then treated daily with oral 80 mg KBU2046/kg (46) or vehicle (CO) and with weekly intraperitoneal docetaxel (doc) at 0 or 20 mg/kg, beginning on day 1, and tumor size measured. Data are mean±SEM, with N=20 mice per cohort.
PCa subcutaneous implantation: 2.5×10^5 PC3-M cells in sterile PBS were implanted into the right flank of 6-7 week old male athymic nude mice (Charles River) and tumor growth measurements were performed twice a week as previously described by us (Gordon et al., Chemotherapy-induced monoamine oxidase expression in prostate carcinoma functions as a cytoprotective resistance enzyme and associates with clinical outcomes. PLoS One 9, e104271 (2014)). […] Tumor measurements were obtained in a blinded fashion, and tumor volumes were calculated with the following formula: length×(width)^2×0.5.

PC3-M-luc cells = experiment: PCa orthotopic implantation, primary tumor growth and lung metastasis; type: in vivo, mice
Procedure: To assess the efficacy of a spectrum of docetaxel concentrations, mice received orthotopic implants of PC3-M-luc cells, were treated with 0, 10 or 20 mg/kg docetaxel, and tumor growth monitored with weekly IVIS imaging. […] Subsequently, mice with orthotopic implants of PC3-M-luc cells were treated with docetaxel, KBU2046, docetaxel+KBU2046 or vehicle, as denoted, and effects on primary tumor growth and lung metastasis quantified (FIGS. 2A, 2B, and 2C).
Cohorts of N=10 mice bearing orthotopic implants of PC3-M-luc cells were treated daily with 150 mg/kg KUB2046 (46), intraperitoneal docetaxel 7.5 mg/kg weekly (doc), the combination (doc+46), or with oral and intraperitoneal vehicle (CO). KBU2046 treatment began 3 days before implantation and docetaxel began 1 week after. (A) Lung metastasis measured by qPCR for human Alu sequences, expressed as percent control (B) Weekly IVIS imaging of tumor. (C) Tumor weight. * denotes P<0.05 for differences between cohorts denoted by bars. All data are mean±SEM.
PCa orthotopic implantation: Orthotopic implantation of 2.5×10^5 PC3M-luc into 7-8 week old male athymic mice was performed as previously described by us (5, 52 Xu et al., above; and Pavese et al., J Vis Exp, e50873 (2013)). Daily oral gavage treatment with 150 mg/kg KBU2046 or was initiated 3 days prior to implantation and continued throughout the duration of the study. Weekly IP injections with 7.5 mg/kg docetaxel or control were administered beginning one week post implantation. Primary tumor out growth was monitored via weekly IVIS imaging. At the completion of the study the primary tumor was resected and weighed and lungs were resected and snap frozen. To determine the human PCa metastatic burden in each mouse lung, the snap frozen tissue was pulverized, DNA isolated and Alu-sequencing performed as previously described (19). […] (SEQ ID NO: 3). The 144RH probe was labeled with a 5′ fluorescent reporter (6-FAM) and a 3′ fluorescent quencher (Black Hole Quencher). The relative content of human DNA was calculated with using the comparative CT method, CT (sample)-CT(negative control). All samples were run in triplicate and were repeated.

[1] = tested on: prostate specific antigen (PSA); experiment: PSA expression by qRT/PCR in LNCaP cells; type: cell-based, human; conditions: LNCaP cells in androgen depleted media
Procedure: (§1) Cells were cultured in media depleted of androgen and after a washout of 72 hrs were treated with the synthetic androgen R1881, KBU2046, enzalutamide and/or vehicle (control), and resultant effects upon induction of the androgen-responsive gene, prostate specific antigen (PSA) were measured (FIG. 3A).
(§2) LNCaP or VCaP cells cultured in hormone free media were treated with R1881 (R), KBU2046 (46) and/or enzalutamide (E). (FIGS. 3A and 3B) Effects on AR-responsive gene expression. PSA expression was measured by qRT/PCR, normalized to GAPDH and expressed as a percent of control cells (N=3 replicates); * denotes P<0.05 for groups separated by bar. (FIGS. 3C and 3D) Effects on cell growth. Three day growth assays were performed. Data are the number of viable cells, expressed as % of control (N=3 replicates); * P<0.05 compared to control. (E) Effects on AR activation. Western blots of nuclear (N) and cytoplasmic (C) preparations of cell extracts were probed for AR, laminin 1 or α-tubulin. (FIGS. 3F and 3G) Effects on tumor outgrowth after androgen deprivation therapy. LNCaP/AR-luc cells were implanted subcutaneously (N=6 mice/cohort) or orthotopic (N=15 mice/cohort were implanted; N=5 yielded tumors) into castrate mice, treatment with KBU2046 began as noted, and weekly IVIS imaging performed. Data are tumor size, expressed as luminescence intensity. All data are expressed as mean±SEM.
(§3) RNA was isolated and qRT/PCR performed as previously described by us (Ding et al., J Biomol Tech 18, 321-330 (2007)). Resultant data were analyzed using the 2^−ΔΔt method (Livak et al., Methods 25, 402-408 (2001)), normalized to GAPDH, for the following primer/probe sets (ABI) PSA (Hs02576345_m1) and GAPDH (Hs99999905_m1). Assays were performed in triplicate, and were repeated.

[2] = tested on: prostate specific antigen (PSA); experiment: PSA expression by qRT/PCR in VCaP cells; type: cell-based, human; conditions: VCaP cells in androgen depleted media
Procedure: as §1, §2, §3

LNCaP cells = experiment: SRB growth inhibition assay, LNCaP; type: cell-based, human; conditions: 10 μM enzalutamide, 10 μM KBU2046 added to control or enzalutamide treated cells, 72 hours
Procedure: as §2
(§4) Enzalutamide mediated growth inhibition was assessed using Sulforhodamine B (SRB) growth inhibition assays, were performed as previously described (49). In brief, LNCaP and VCaP cells were pre-incubated in charcoal-striped medium for 48 hours and then seeded (1.9×10^4) in 96-well plates. […]

VCaP cells = experiment: SRB growth inhibition assay, VCaP; type: cell-based, human; conditions: 10 μM enzalutamide, 10 μM KBU2046 added to control or enzalutamide treated cells, 72 hours
Procedure: as §2, §4

`CC(=O)O[C@@]12CO[C@@H]1C[C@H](O)[C@@]1(C)C(=O)[C@H](O)C3=C(C)[C@@H](OC(=O)[C@H](O)[C@@H](NC(=O)OC(C)(C)C)c4ccccc4)C[C@@](O)([C@@H](OC(=O)c4ccccc4)[C@H]21)C3(C)C` [docetaxel] was tested. Which tumor growth (PC3-M cells) did it give?
Its tumor growth is “significantly inhibited”.

And the “prostate tumor growth kinetics by weekly IVIS imaging” value (PC3-M-luc cells; cohorts receiving docetaxel 7.5 mg/kg weekly vs not)?
Its value is “slower growth”.

And the “tumor growth by weekly IVIS imaging” value (PC3-M-luc cells; orthotopic PC3-M-luc, 0, 10 or 20 mg/kg docetaxel, dose-dependent)?
The value was “significantly inhibited”.

What about the “decrease of tumor weight compared to control” value (PC3-M-luc cells; orthotopic PC3-M-luc, 150 mg/kg KBU2046 daily, docetaxel 7.5 mg/kg weekly) of the same compound?
Its value is 49%.

And the “decrease of lung metastasis compared to control (human Alu qPCR)” value (PC3-M-luc cells; orthotopic PC3-M-luc, 150 mg/kg KBU2046 daily, docetaxel 7.5 mg/kg weekly intraperitoneal)?
Its value is 23%.

For `CNC(=O)c1ccc(N2C(=S)N(c3ccc(C#N)c(C(F)(F)F)c3)C(=O)C2(C)C)cc1F` [enzalutamide], which PSA expression [1] is on record?
Its PSA expression is “decreased”.

What about the PSA expression [2] of the same compound?
Its PSA expression is “decreased”.

What about the cell growth (LNCaP cells) of the same compound?
The cell growth was “significantly inhibited”.

And the cell growth (VCaP cells)?
Its cell growth is “significantly inhibited”.
